Data from patent US5695970A, “Glucan lyase producing 1,5-anhydrofructose” (priority 1992, dated 1997).
Like-named read-outs stand apart in the source and are kept apart here.

Legend:
[1] = system: hexokinase and glucose-6-phosphate dehydrogenase pathway; assay: Metabolization of AF by hexokinase and glucose-6-phosphate dehydrogenase; format: biochemical
α-1,4-glucan lyase = assay: Inhibition studies of α-1,4-glucan lyase activity; format: biochemical, Gracilariopsis lemaneiformis; conditions: products accumulating during the enzyme reaction
Description: The reaction mixture for the assay of α-1,4-glucan lyase was composed of 240 μl 62.5 mM Mops-NaOH containing 6 mg soluble starch (pH 6.2), the enzyme preparation and distilled water to a final volume of 300 μl. The reaction was carried out at 30° C. for 10-30 min. Liberated 1,5-anhydrofructose was determined by monitoring the absorbance at 546 nm after the addition of 3,5-dinitrosalicylic acid reagent. Soluble starch in the reaction mixture may be replaced by other substrates and the final substrate concentration may be varied as indicated in the text. The reaction time and enzyme concentration used in enzyme activity assay have been chosen to ensure the linearity of the reaction rate. One unit of α-1,4-glucan lyase activity is defined as the amount of enzyme which liberates 1μmol of 1,5-anhydrofructose min^-1 under the conditions described above.

glucose peroxidase = assay: Metabolization of AF by glucose peroxidase; format: biochemical
[2] = format: physicochemical; conditions: for Absorbance at 546 nm: room temperature; for Absorbance (546 nm): Table VII, 10 min after DNS reagent
Description: It can be seen that the reaction was completed in less than 10 minutes. […] (1990) Methods in Plant Biochemistry (Dey, P. M. and Harborne, J. B., eds.), Vol.3, pp. 103-127, Academic Press, London). |Time-course reaction of AF with DNS reagent at room |temperature. The absorbance at 546 nm as a measure of reaction |rate was recorded soon after the addition of 300 μl DNS reagent |to 300 μl sample solution containing varying amount of AF. […] The reaction of AF with 3,5-dinitrosalicylic acid reagent occurred at room temperature and was completed within 10 min (Table VI). A linear relationship exists for AF between the absorbance of 0.1-2.3 at 546 nm and AF content, ranging from 0.3-2.7 μmol or 50-440 μg i 300 μl sample (Table VII). […] This method is applicable to both the smallest substrate as maltose and the largest substrate as amylopectin. |The correlation between AF content and absorbance. |Absorbance was measured 10 min after the addition of |300 μl DNS reagent to 300 μl sample solution |containing varying amount of AF as indicated.

SMILES: O=C1CO[C@H](CO)[C@@H](O)[C@@H]1O [AF, 1,5-anhydrofructose]
- metabolization through hexokinase and glucose-6-phosphate dehydrogenase pathway [1]: can not be metabolized
- product inhibition: effect on enzyme reaction rate (α-1,4-glucan lyase): negligible effect
- metabolization by glucose peroxidase (glucose peroxidase): can not be metabolized
- reducing power (in words) ([2]; 3,5-dinitrosalicylic acid reagent at room temperature): high reducing power
- Absorbance at 546 nm ([2]; AF content 0.55 μmol, reaction time 0 min): 0
- Absorbance at 546 nm ([2]; AF content 0.55 μmol, reaction time 1 min): 0.037
- Absorbance at 546 nm ([2]; AF content 0.55 μmol, reaction time 2 min): 0.180
- Absorbance at 546 nm ([2]; AF content 0.55 μmol, reaction time 3 min): 0.274
- Absorbance at 546 nm ([2]; AF content 0.55 μmol, reaction time 4 min): 0.341
- Absorbance at 546 nm ([2]; AF content 0.55 μmol, reaction time 5 min): 0.386
- Absorbance at 546 nm ([2]; AF content 0.55 μmol, reaction time 6 min): 0.414
- Absorbance at 546 nm ([2]; AF content 0.55 μmol, reaction time 7 min): 0.431
- Absorbance at 546 nm ([2]; AF content 0.55 μmol, reaction time 8 min): 0.440
- Absorbance at 546 nm ([2]; AF content 0.55 μmol, reaction time 9 min): 0.444
- Absorbance at 546 nm ([2]; AF content 0.55 μmol, reaction time 10 min): 0.446
- Absorbance at 546 nm ([2]; AF content 1.26 μmol, reaction time 0 min): 0
- Absorbance at 546 nm ([2]; AF content 1.26 μmol, reaction time 1 min): 0.218
- Absorbance at 546 nm ([2]; AF content 1.26 μmol, reaction time 2 min): 0.468
- Absorbance at 546 nm ([2]; AF content 1.26 μmol, reaction time 3 min): 0.660
- Absorbance at 546 nm ([2]; AF content 1.26 μmol, reaction time 4 min): 0.796
- Absorbance at 546 nm ([2]; AF content 1.26 μmol, reaction time 5 min): 0.888
- Absorbance at 546 nm ([2]; AF content 1.26 μmol, reaction time 6 min): 0.948
- Absorbance at 546 nm ([2]; AF content 1.26 μmol, reaction time 7 min): 0.985
- Absorbance at 546 nm ([2]; AF content 1.26 μmol, reaction time 8 min): 1.007
- Absorbance at 546 nm ([2]; AF content 1.26 μmol, reaction time 9 min): 1.024
- Absorbance at 546 nm ([2]; AF content 1.26 μmol, reaction time 10 min): 1.029
- Absorbance at 546 nm ([2]; AF content 2.36 μmol, reaction time 0 min): 0
- Absorbance at 546 nm ([2]; AF content 2.36 μmol, reaction time 1 min): 0.476
- Absorbance at 546 nm ([2]; AF content 2.36 μmol, reaction time 2 min): 0.930
- Absorbance at 546 nm ([2]; AF content 2.36 μmol, reaction time 3 min): 1.271
- Absorbance at 546 nm ([2]; AF content 2.36 μmol, reaction time 4 min): 1.510
- Absorbance at 546 nm ([2]; AF content 2.36 μmol, reaction time 5 min): 1.671
- Absorbance at 546 nm ([2]; AF content 2.36 μmol, reaction time 6 min): 1.775
- Absorbance at 546 nm ([2]; AF content 2.36 μmol, reaction time 7 min): 1.840
- Absorbance at 546 nm ([2]; AF content 2.36 μmol, reaction time 8 min): 1.880
- Absorbance at 546 nm ([2]; AF content 2.36 μmol, reaction time 9 min): 1.905
- Absorbance at 546 nm ([2]; AF content 2.36 μmol, reaction time 10 min): 1.920
- Absorbance at 546 nm ([2]; AF content 2.84 μmol, reaction time 0 min): 0
- Absorbance at 546 nm ([2]; AF content 2.84 μmol, reaction time 1 min): 0.559
- Absorbance at 546 nm ([2]; AF content 2.84 μmol, reaction time 2 min): 1.222
- Absorbance at 546 nm ([2]; AF content 2.84 μmol, reaction time 3 min): 1.628
- Absorbance at 546 nm ([2]; AF content 2.84 μmol, reaction time 4 min): 1.898
- Absorbance at 546 nm ([2]; AF content 2.84 μmol, reaction time 5 min): 2.070
- Absorbance at 546 nm ([2]; AF content 2.84 μmol, reaction time 6 min): 2.176
- Absorbance at 546 nm ([2]; AF content 2.84 μmol, reaction time 7 min): 2.239
- Absorbance at 546 nm ([2]; AF content 2.84 μmol, reaction time 8 min): 2.278
- Absorbance at 546 nm ([2]; AF content 2.84 μmol, reaction time 9 min): 2.300
- Absorbance at 546 nm ([2]; AF content 2.84 μmol, reaction time 10 min): 2.311
- Absorbance (546 nm) ([2]; AF content 0.264 μmol): 0.113
- Absorbance (546 nm) ([2]; AF content 0.340 μmol): 0.154
- Absorbance (546 nm) ([2]; AF content 0.360 μmol): 0.166
- Absorbance (546 nm) ([2]; AF content 0.526 μmol): 0.305
- Absorbance (546 nm) ([2]; AF content 0.540 μmol): 0.237
- Absorbance (546 nm) ([2]; AF content 0.636 μmol): 0.355
- Absorbance (546 nm) ([2]; AF content 0.655 μmol): 0.514
- Absorbance (546 nm) ([2]; AF content 0.702 μmol): 0.584
- Absorbance (546 nm) ([2]; AF content 0.929 μmol): 0.682
- Absorbance (546 nm) ([2]; AF content 1.089 μmol): 0.710
- Absorbance (546 nm) ([2]; AF content 1.148 μmol): 0.880
- Absorbance (546 nm) ([2]; AF content 1.181 μmol): 0.880
- Absorbance (546 nm) ([2]; AF content 1.241 μmol): 1.099
- Absorbance (546 nm) ([2]; AF content 1.514 μmol): 1.415
- Absorbance (546 nm) ([2]; AF content 1.529 μmol): 1.260
- Absorbance (546 nm) ([2]; AF content 1.588 μmol): 1.516
- Absorbance (546 nm) ([2]; AF content 1.627 μmol): 1.302
- Absorbance (546 nm) ([2]; AF content 1.712 μmol): 1.409
- Absorbance (546 nm) ([2]; AF content 2.031 μmol): 1.830
- Absorbance (546 nm) ([2]; AF content 2.052 μmol): 1.703
- Absorbance (546 nm) ([2]; AF content 2.183 μmol): 1.806
- Absorbance (546 nm) ([2]; AF content 2.241 μmol): 1.787
- Absorbance (546 nm) ([2]; AF content 2.362 μmol): 1.875
- Absorbance (546 nm) ([2]; AF content 2.683 μmol): 2.266
- Absorbance (546 nm) ([2]; AF content 3.221 μmol): 2.590
